# Results published in patent publication US20250154193A1, “STEROID COMPOUND, AND PREPARATION METHOD THEREFOR AND APPLICATION THEREOF” (CHOLESGEN (SHANGHAI) CO., LTD., priority 2022, published 2025).
# Tests used:
# [1] = tested on: SREBP pathway; assay: SREBP luciferase reporter gene system (SRE-luciferase assay) in Huh-7/SRE-Luc cells; assay type: cell-based; conditions: Homo sapiens, sterol-deficient medium, compound treatment 16 hours, luciferase/GFP ratio
# Procedure, shortened: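 Huh-7 cells stably carrying an LDLR promoter (SRE)-luciferase and GFP were treated for 16 hours in sterol-deficient medium (5% lipoprotein-deficient serum, 2 μM lovastatin, 10 μM mevalonate) at […] compound, with DMSO vehicle. IC50 derived from the ratio of luciferase activity to GFP fluorescence.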
# [2] = Liver microsomal metabolic stability assay; assay type: in vitro ADME; conditions: rat liver microsomes, NADPH, 37° C., 0-60 minutes; read-out: Rat microsomal metabolic half-life (t1/2)
# Procedure: PBS solution (100 mM), MgCl2 solution (100 mM), and NADPH solution (20 mM) were prepared respectively. Compound and testosterone (positive control) stock solutions were then prepared with dimethyl sulfoxide (DMSO), diluted to 100 µM with methanol for sample incubation, and stored at −10 to −30° C. 12.5 μL of rat liver microsomes (purchased from XenoTech, Cat. No.: R1000, Lot No.: 1310030, specification: 20 mg/mL), 432.5 µL of PBS solution (100 mM), 25 µL of NADPH solution (20 mM), and 25 μL of MgCl2 solution (100 mM) were added to a 96-well plate, mixed well, and pre-incubated at 37° C. for 5 minutes. 5 µL of substrate (test compound) solution was added to start the reaction. At specified time points of 0, 5, 15, 30, 45, and 60 minutes (0 and 60 minutes for the negative control group), 50 µL of the incubated samples were added to a stop plate containing 100 µL of ice-cold stop solution, vortexed for 1 minute to inactivate the reaction, and stored at −60 to −90° C. for subsequent analysis. Sample analysis of the test compound and the control compound testosterone was performed using LC-MS/MS method. Chromatographic peaks were integrated, calculated, and processed using Analyst software. Semi-quantitative analysis was performed for both the test compound and the control compound testosterone by calculating peak area ratios.
# [3] = tested on: liver organoids; assay: Real-time quantitative PCR of lipogenesis- and fibrosis-related genes in fatty liver organoids; assay type: cell-based, mice; conditions: mouse fatty liver organoids, 1 and 3 μM, 72 hours, qPCR
# Excerpt: Liver samples or liver organoid samples were homogenized in TRI Reagent (T9424, Sigma), and total RNA was extracted according to the manufacturer's instructions. Equal amounts of RNA template were used to synthesize cDNA with oligo dT primers and MLV reverse transcriptase (Promega). Quantitative data for genes were collected using the Bio-Rad CFX96 real-time PCR system, and the relative amount of gene mRNA was quantified using the comparative CT method.
# C57BL/6N mice were fed with fatty liver-inducing diet (TrophicDiet, TP2630052A, containing 10.2% kcal protein, 37.3% kcal carbohydrate, and 52.6% kcal fat) and fructose-containing drinking water (23.1 g of fructose and 18.9 g of dextrose were dissolved in 1 L of water, then filtered and sterilized) for a total of 16 weeks starting at 12 weeks of age to generate a fatty liver model. To generate fatty liver organoids, liver tissues from mice with fatty liver were minced and digested in digestion buffer at 37° C. for 30 to 60 minutes. The digestion buffer included DMEM/F-12 (Cytiva, SH30023.01), 2.5 mg/mL collagenase D (Roche, COLLD-RO), and 0.1 mg/mL DNaseI (Sigma-Aldrich, DN25). […]
# To distinguish whether the inhibitory effect of 25-hydroxylanosterol is directly based on its effect on the liver or a systemic effect, we utilized 3D liver organoids as an in vitro model for the study of fatty liver to analyze the effect of 25-hydroxylanosterol on lipogenesis and fibrosis marker expression in liver organoids. […] RNA from the organoids was collected and analyzed for the differential expression of lipogenesis-related genes (Hmgcs, Hmgcr, SCD1, and FASN) and fibrosis markers (αSMA and Colla1) using fluorescent real-time quantitative PCR.
# In FIGS. 35 and 36, data are represented as mean±standard deviation. P values were calculated using one-way ANOVA; ns indicates no statistical difference; * indicates P<0.05; ** indicates P<0.01; *** indicates P<0.001. In FIGS. 47 and 53, quantitative analysis was performed using ImageJ software. […] P values were calculated using one-way ANOVA; * indicates P<0.05; ** indicates P<0.01; *** indicates P<0.001.
SMILES,IC50 [1] [µM],half-life at 1 µM [2] [h],"expression levels of lipogenesis-related genes (Hmgcs, Hmgcr, SCD1, and FASN) [3]"
"COc1cc(F)ccc1C(O)CCC[C@@H](C)[C@H]1CC[C@H]2[C@@H]3CC[C@H]4[C@@H](O)[C@@H](O)CC[C@]4(C)[C@H]3CC[C@]12C (stereo partly drawn) [compound 306, 24-[(4-fluoro-2-methoxyphenyl)(hydroxy)methyl]-5α-cholan-3β,4β-diol]",0.08,1.74,–
"C[C@H](CCCC(O)c1ccccc1OC(F)(F)F)[C@H]1CC[C@H]2[C@@H]3CC[C@H]4[C@@H](O)[C@@H](O)CC[C@]4(C)[C@H]3CC[C@]12C (stereo partly drawn) [compound 317, 24-(hydroxy{2-[(trifluoromethyl)oxy]phenyl}methyl)-5α-cholan-3β,4β-diol]",0.14,2.28,–
"CC[C@H]1[C@@H](O)[C@@H]2[C@H](CC[C@]3(C)[C@@H]([C@H](C)CCC(=O)O)CC[C@@H]23)[C@@]2(C)CC[C@@H](O)C[C@@H]12 [obeticholic acid, Obeticholic acid, reference compound]",–,–,failed to inhibit
